Measured values as given in ChEMBL document CHEMBL4346693, “Exploring the PROTAC degron candidates: OBHSA with different side chains as novel selective estrogen receptor degraders (SERDs)” (Eur J Med Chem, 2019).
Activity calls are given as the source filed them. The calls are words filed in the database; no cut-off is given here.

Key:
[1] = molecular target: T1, Estrogen receptor (Homo sapiens) (UniProt P03372); assay: Induction of ERalpha protein degradation in human MCF7 cells at 5 uM incubated for 20 hrs by Western blot analysis relative to control; assay type: cell-based
T1 sequence (whole entry): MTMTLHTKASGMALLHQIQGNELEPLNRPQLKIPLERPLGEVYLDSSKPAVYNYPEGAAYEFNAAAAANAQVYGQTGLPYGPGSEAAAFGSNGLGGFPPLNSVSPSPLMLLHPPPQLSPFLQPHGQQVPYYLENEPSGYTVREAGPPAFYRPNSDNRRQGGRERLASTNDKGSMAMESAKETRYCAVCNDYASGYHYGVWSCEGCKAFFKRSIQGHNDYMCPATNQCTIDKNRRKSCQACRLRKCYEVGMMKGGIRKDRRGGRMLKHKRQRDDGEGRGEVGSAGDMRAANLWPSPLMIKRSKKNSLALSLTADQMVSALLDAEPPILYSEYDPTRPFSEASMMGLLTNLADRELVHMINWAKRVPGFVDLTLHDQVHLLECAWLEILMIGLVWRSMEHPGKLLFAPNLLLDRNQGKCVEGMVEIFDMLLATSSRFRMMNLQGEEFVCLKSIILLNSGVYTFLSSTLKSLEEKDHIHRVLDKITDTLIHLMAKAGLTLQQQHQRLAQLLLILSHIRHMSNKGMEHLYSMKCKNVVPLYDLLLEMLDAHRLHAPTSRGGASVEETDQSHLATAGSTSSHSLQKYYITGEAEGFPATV

[2] = molecular target: T1, Estrogen receptor (Homo sapiens); assay: Binding affinity to purified human ERalpha LBD incubated for 2 hrs by fluorescence tracer based competitive fluorometric binding assay relative to estradiol
[3] = tested on: MCF7; assay: cells; settings: Homo sapiens, MCF7, 72 h
Description: Antiproliferative activity against human MCF7 cells incubated for 72 hrs by MTT assay

[4] = molecular target: T1, Estrogen receptor (Homo sapiens); assay: Induction of ERalpha protein degradation in human MCF7 cells assessed as ERalpha protein level at 10 uM incubated for 20 hrs by Western blot analysis relative to control; assay type: cell-based
[5] = molecular target: Estrogen receptor beta (Homo sapiens) (UniProt Q92731); assay: Binding affinity to ERbeta (unknown origin) incubated for 2 hrs by fluorescence tracer based competitive fluorometric binding assay relative to estradiol
[6] = molecular target: T1, Estrogen receptor (Homo sapiens); assay: Induction of ERalpha protein degradation in human MCF7 cells at 1 uM incubated for 20 hrs by Western blot analysis relative to control; assay type: cell-based
[7] = Cmax in Sprague-Dawley rat at 10 mg/kg, po by LC-MS/MS analysis; assay type: ADME, organism-based; design: dose 10 mg/kg, route oral; settings: in vivo
[8] = Volume of distribution at steady state in Sprague-Dawley rat at 3 mg/kg, iv by LC-MS/MS analysis; assay type: ADME, organism-based; settings: in vivo, read-out: Vdss
[9] = Oral bioavailability in Sprague-Dawley rat at 10 mg/kg by LC-MS/MS analysis; assay type: ADME, organism-based; settings: in vivo
[10] = molecular target: T1, Estrogen receptor (Homo sapiens); assay: Induction of ERalpha protein degradation in human MCF7 cells at 0.5 uM incubated for 20 hrs by Western blot analysis; assay type: cell-based
[11] = Half life in Sprague-Dawley rat at 3 mg/kg, iv by LC-MS/MS analysis; assay type: ADME, organism-based; settings: in vivo
[12] = Cmax in Sprague-Dawley rat at 3 mg/kg, iv by LC-MS/MS analysis; assay type: ADME, organism-based; design: dose 3 mg/kg, route intravenous; settings: in vivo
[13] = Clearance in Sprague-Dawley rat at 3 mg/kg, iv by LC-MS/MS analysis; assay type: ADME, organism-based; settings: in vivo
[14] = Half life in Sprague-Dawley rat at 10 mg/kg, po by LC-MS/MS analysis; assay type: ADME, organism-based; settings: in vivo
[15] = AUC in Sprague-Dawley rat at 3 mg/kg, iv by LC-MS/MS analysis; assay type: ADME, organism-based; settings: in vivo
[16] = AUC in Sprague-Dawley rat at 10 mg/kg, po by LC-MS/MS analysis; assay type: ADME, organism-based; settings: in vivo

Estrogen receptor beta (Homo sapiens), sequence (Q92731 whole entry): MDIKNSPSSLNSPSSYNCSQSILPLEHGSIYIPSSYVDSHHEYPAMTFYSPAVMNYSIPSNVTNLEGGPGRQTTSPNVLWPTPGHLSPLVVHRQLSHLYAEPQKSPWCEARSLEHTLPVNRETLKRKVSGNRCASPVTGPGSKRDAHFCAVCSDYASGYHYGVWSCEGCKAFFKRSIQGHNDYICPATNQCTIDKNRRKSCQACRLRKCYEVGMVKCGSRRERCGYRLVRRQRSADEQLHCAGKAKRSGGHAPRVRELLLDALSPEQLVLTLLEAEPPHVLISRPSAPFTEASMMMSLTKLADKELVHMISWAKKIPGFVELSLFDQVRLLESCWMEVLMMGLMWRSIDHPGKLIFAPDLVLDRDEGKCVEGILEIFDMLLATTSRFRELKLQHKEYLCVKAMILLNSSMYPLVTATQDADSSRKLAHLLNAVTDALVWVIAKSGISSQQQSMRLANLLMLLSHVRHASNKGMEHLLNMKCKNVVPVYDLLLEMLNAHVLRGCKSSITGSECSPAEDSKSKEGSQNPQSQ

| SMILES | RBA [2] [%] | IC50 [3] [µM] | Activity [4] [%] | RBA [5] [%] | further results |
| --- | --- | --- | --- | --- | --- |
| COc1ccc(N(CC(F)(F)F)S(=O)(=O)[C@H]2C[C@H]3O[C@@H]2C(c2ccc(O)cc2)=C3c2ccc(O)cc2)cc1 | – | – | – | – | Activity [1]: 100% |
| COc1ccc(N(CC(F)(F)F)S(=O)(=O)[C@H]2C[C@H]3O[C@@H]2C(c2ccc(OCCCCCCC(=O)O)cc2)=C3c2ccc(O)cc2)cc1 (relative stereo) | 1.82 | 15.9 | 32 | 0.13 | – |
| CCN(c1ccc(OCCN2CCCCC2)cc1)S(=O)(=O)[C@H]1C[C@H]2O[C@@H]1C(c1ccc(O)cc1)=C2c1ccc(O)cc1 (relative stereo) | 0.58 | 5.4 | 89 | 0.25 | – |
| COc1ccc(N(CC(F)(F)F)S(=O)(=O)[C@H]2C[C@H]3O[C@@H]2C(c2ccc(OCCCCCCCC(=O)O)cc2)=C3c2ccc(O)cc2)cc1 (relative stereo) | 0.07 | 40.3 | 42 | < 0.01 | – |
| CN(c1ccccc1)S(=O)(=O)[C@H]1C[C@H]2O[C@@H]1C(c1ccc(OCCN3CCCCC3)cc1)=C2c1ccc(O)cc1 (relative stereo) | 0.95 | 15.2 | 98 | 0.79 | – |
| CCN(c1ccccc1)S(=O)(=O)[C@H]1C[C@H]2O[C@@H]1C(c1ccc(OCCCCCCCC(=O)O)cc1)=C2c1ccc(O)cc1 (relative stereo) | 1.2 | 27.4 | 79 | 0.4 | – |
| CCN(c1ccccc1)S(=O)(=O)[C@H]1C[C@H]2O[C@@H]1C(c1ccc(OCCCCCCCCCCC(=O)O)cc1)=C2c1ccc(O)cc1 (relative stereo) | 0.93 | 10.3 | 51 | 0.13 | – |
| CCN(c1ccccc1)S(=O)(=O)[C@H]1C[C@H]2O[C@@H]1C(c1ccc(OCCN3CCCCC3)cc1)=C2c1ccc(O)cc1 (relative stereo) | 2.51 | 12.9 | 95 | 0.81 | – |
| O=S(=O)([C@H]1C[C@H]2O[C@@H]1C(c1ccc(OCC(O)CO)cc1)=C2c1ccc(O)cc1)N(CC(F)(F)F)c1ccc(Cl)cc1 (relative stereo) | 1.62 | 16.8 | 38 | < 0.01 | – |
| COc1ccc(N(CC(F)(F)F)S(=O)(=O)[C@H]2C[C@H]3O[C@@H]2C(c2ccc(OCCCCCCCCCCC(=O)O)cc2)=C3c2ccc(O)cc2)cc1 (relative stereo) | 0.06 | 14.3 | 83 | 0.7 | – |
| CCN(c1ccccc1)S(=O)(=O)[C@H]1C[C@H]2O[C@@H]1C(c1ccc(OCC(O)CO)cc1)=C2c1ccc(O)cc1 (relative stereo) | 0.26 | 33.6 | 117 | 0.28 | – |
| CCN(c1ccc(OCC(O)CO)cc1)S(=O)(=O)[C@H]1C[C@H]2O[C@@H]1C(c1ccc(O)cc1)=C2c1ccc(O)cc1 (relative stereo) | 0.46 | 32.3 | 63 | 0.53 | – |
| CCN(c1ccc(OCCCCCCCCCCC(=O)O)cc1)S(=O)(=O)[C@H]1C[C@H]2O[C@@H]1C(c1ccc(O)cc1)=C2c1ccc(O)cc1 (relative stereo) | 0.57 | 18.4 | 29 | < 0.01 | – |
| CCN(c1ccc(OCCCCCCC(=O)O)cc1)S(=O)(=O)[C@H]1C[C@H]2O[C@@H]1C(c1ccc(O)cc1)=C2c1ccc(O)cc1 (relative stereo) | 1.22 | > 50 | 92 | 0.41 | – |
| COc1ccc(N(CC(F)(F)F)S(=O)(=O)[C@H]2C[C@H]3O[C@@H]2C(c2ccc(OCCN4CCCC4)cc2)=C3c2ccc(O)cc2)cc1 (relative stereo) | 2.12 | 6.1 | 1 | 1.81 | Activity [6]: 100%; Cmax [7]: 50 ng/mL; Vd [8]: 9.55 L/kg; bioavailability [9]: 9.2%; Activity [10]: Active; half-life [11]: 6.2 h; Cmax [12]: 1000 ng/mL; clearance [13]: 46 mL/min/kg; half-life [14]: 3.7 h; AUC [15]: 1080 ng·h/mL; AUC [16]: 330 ng·h/mL |
| CCN(c1ccc(OCCCCCCCC(=O)O)cc1)S(=O)(=O)[C@H]1C[C@H]2O[C@@H]1C(c1ccc(O)cc1)=C2c1ccc(O)cc1 (relative stereo) | 3.21 | 24.9 | 78 | 0.42 | – |
| CC/C(=C(\c1ccc(O)cc1)c1ccc(OCCN(C)C)cc1)c1ccccc1 [AFIMOXIFENE] | – | 10.1 | – | – | – |
